Results from publication PMC11054727 (Viruses, 2024).

Target: trimeric construct of the SARS-CoV-2 S2 segment (Severe acute respiratory syndrome coronavirus 2, UniProt P0DTC2, A892P/A899P/A942P/F817P/K986P/V987P)
Assay type: binding

Ivermectin
binding to S2: did not show any binding
